# Patent publication US8847003B2, “Role of proteoglycans in drug dependence” (priority 2002, dated 2014)
# Ends that are not written are not given here.
# What was measured:
# [1] = test system: mouse hypothalamic protein extracts; experiment: Cleavage of internally-quenched fluorogenic peptides by hypothalamic protein extracts; format: biochemical; settings: 37° C., 50 mM Tris-HCl buffer, pH 7.0; for proteolytic cleavage of the fluorogenic peptide by hypothalamic extracts: peptide as substrate
# From the text: According to one of the embodiments of the invention, syndecan-3 sheddases are identified by an assay for syndecan-3 cleavage, which requires knowledge of the cleavage site. The cleavage site for syndecan-3 cleavage is not presently completely identified. However, according to embodiments of the invention, we designed a battery of overlapping internally-quenched fluorogenic peptides spanning the juxta-membrane region of the mouse syndecan-3 (Amino Acid residues 355-388) labeled at their ends with Abz (ortho-aminobenzoyl) and EDDnp (ethylenediaminedinitrophenyl) for fluorescent detection of proteolytic cleavage (FIG. 7A). The peptides were individually incubated with mouse hypothalamic protein extracts at 37° C. in 50 mM Tris-HCl buffer, pH 7.0. Fluorescence was continuously measured at λex=320 nm and λem=420 nm. […] Proteolytic activity is expressed as reaction rate (activity/μl/min). […] Thus, this peptide or a peptide overlapping this peptide can be used in an assay to identify the sheddase of syndecan-3 and/or drugs that prevent or facilitate shedding (inhibitors, activators, mimics antimimics).
# While the invention has been described in conjunction with the detailed description, the foregoing description is intended to illustrate and not limit the scope of the invention, which is defined by the scope of the appended claims. Other aspects, advantages, and modifications are within the scope of the following claims.
# syndecan-mutant mice = experiment: Cue-induced reinstatement of cocaine-seeking behavior; format: in vivo; settings: for reinstatement of cocaine seeking behavior in mice (figure legend): FIG. 6 legend
# From the text: . Separate groups of mice of the 3 syndecan mutant genotypes (syndecan-3 knockout, whole syndecan-1 transgenic, and syndecan-1 ectodomain transgenic mice) were trained to self-administer cocaine by intravenous injection as described above. Mice were subjected to 7 sessions of 1-hour access to self-administration followed by 8 sessions of 6-hour access as described above.
# Mice were allowed one 1-hour extinction session/day for a minimum of 14 days, until an extinction criterion was reached. The extinction criterion was designated as a group mean of less than 10 responses/1 hour for two consecutive sessions on the active lever.
# The conditions during testing were identical to those during the extinction phase, with the exception that lever presses led to presentations of the cocaine cue-light for 5 seconds. The 1-hour test session for cue-induced reinstatement were conducted on the day following the last extinction session. A one way ANOVA with one between factor (genotype, three) were used to measure any differential effects of the cocaine-related cue induced reinstatement.
# In still another example, the following experiment was performed showing that a wide spectrum of MMP inhibitors block cue-induced reinstatement of cocaine seeking behavior. Lever-pressing behavior in cocaine self-administering syndecan-mutant mice was extinguished in the absence of the 20 sec cue light (CS) that was paired with cocaine infusions during the training phase as shown in Example 4. […] In FIG. 6B, After a few days, animals were again presented with the cue light non-contingently and on the third day of reinstatement they were administered IP the systemically active broad-spectrum MMP inhibitor prinomastat (20 mg/Kg) 30-60 min before the reinstatement sessions starting on the third session.
# Rotarod performance = format: in vivo, mice; settings: prinomastat at the dose used (20 mg/Kg IP); data not shown
# syndecan-3 = experiment: Western blot of uncleaved syndecan-3 after ICV GM-6001 in mice; format: in vivo, C57BL/6J mice; settings: for uncleaved syndecan-3 / shedding of syndecan-3 (western blot, syndecan-3 C-terminal domain antibody): ICV at various doses, sacrificed 3 hours after administration
# From the text: FIG. 5B. Quantification of western blot shown in (A).
compound,measurement,setting,value
c1cnc2c(c1)ccc1cccnc12 [ortho-phenanthroline],inhibition of hydrolysis of peptide 1 (Seq Id No. 3) by hypothalamic extract,"[1]; fluorescence λex=320 nm, λem=420 nm",completely inhibited
"CC1(C)SCCN(S(=O)(=O)c2ccc(Oc3ccncc3)cc2)[C@H]1C(=O)NO [prinomastat, Prinomastat]",reinstatement of cocaine seeking behavior in mice (figure legend),syndecan-mutant mice,block reinstatement of cocaine seeking behavior
same,responding during reinstatement,"syndecan-mutant mice; prinomastat 20 mg/Kg IP 30-60 min before sessions, syndecan-1 ectodomain Tg mice, p<0.01 from last day before treatment",significantly declined
same,performance on the rotarod,Rotarod performance,did not affect
Ilomastat [GM6001],"uncleaved syndecan-3 / shedding of syndecan-3 (western blot, syndecan-3 C-terminal domain antibody)",syndecan-3,reduces shedding of syndecan-3
same,"uncleaved syndecan-3 / shedding of syndecan-3 (western blot, syndecan-3 C-terminal domain antibody)",syndecan-3; listed as GM-6001,accumulation of uncleaved syndecan-3
same,increase of uncleaved syndecan-3 (quantification of western blot),"syndecan-3; ICV, highest doses tested (0.4 μg, 2.0 μg), p<0.01 from vehicle-injected control",about 3 fold
same,reinstatement of cocaine seeking behavior in mice (figure legend),syndecan-mutant mice,block reinstatement of cocaine seeking behavior
same,"responding during reinstatement, last day before treatment vs last day of treatment","syndecan-mutant mice; GM6001 0.4 μg ICV 30-60 min before sessions, syndecan-3 KO mice",not significantly different
same,cocaine seeking behavior (responding) during reinstatement,"syndecan-mutant mice; GM6001 0.4 μg ICV 30-60 min before sessions, whole syndecan-1 Tg mice, p<0.01 from last day before treatment",greatly reduced
Mca-PLQAV-Dpa-RSSSR-NH2 [Compound E003],proteolytic cleavage of the fluorogenic peptide by hypothalamic extracts,[1],observed activity
"RPGLGLHDNA (not fully specified; also: fluorophore/quencher pair (positions not given here); listed as Mus musculus) [Peptide 1, internally-quenched fluorogenic peptide from mouse syndecan-3 juxta-membrane region]",proteolytic cleavage of the fluorogenic peptide by hypothalamic extracts,[1],efficiently hydrolized
